Experiments:
Format in all cases: in vivo
[1] = test system: foxtail, giant (giant foxtail, Setaria faberii); assay: Test A preemergence, directed soil spray, visual injury rating; details: approx. 10 d, 0 = no effect, 100 = complete control
Description: (§1) Seeds of plant species selected from barnyardgrass (Echinochloa crus-galli), kochia (Kochia scoparia), ragweed (common ragweed, Ambrosia elation), ryegrass, Italian (Italian ryegrass, Lolium multiflorum), foxtail, giant (giant foxtail, Setaria faberii), and pigweed (Amaranthus retroflexus), were planted into a blend of loam soil and sand and treated preemergence with a directed soil spray using test chemicals formulated in a non-phytotoxic solvent mixture which included a surfactant. At the same time, plants selected from these weed species and also blackgrass (Alopecurus myosuroides), galium (catchweed bedstraw, Galium aparine), wheat (Triticum aestivum), and corn (Zea mays) were planted in pots containing the same blend of loam soil and sand and treated with postemergence applications of test chemicals formulated in the same manner. Plants ranged in height from 2 to 10 cm and were in the one- to two-leaf stage for the postemergence treatment. Treated plants and untreated controls were maintained in a greenhouse for approximately 10 d, after which time all treated plants were compared to untreated controls and visually evaluated for injury. Plant response ratings, summarized in Table A, are based on a 0 to 100 scale where 0 is no effect and 100 is complete control. A dash (-) response means no test result.

[2] = test system: pigweed (Amaranthus retroflexus); assay: as above; details: approx. 10 d, 0 = no effect, 100 = complete control
Description: as §1

[3] = test system: ragweed (common ragweed, Ambrosia elation); assay: as above; details: approx. 10 d, 0 = no effect, 100 = complete control
Description: as §1

[4] = test system: ryegrass, Italian (Italian ryegrass, Lolium multiflorum); assay: as above; details: approx. 10 d, 0 = no effect, 100 = complete control
Description: as §1

kochia (Kochia scoparia) [5] = assay: as above; details: approx. 10 d, 0 = no effect, 100 = complete control
Description: as §1

[6] = test system: barnyardgrass (Echinochloa crus-galli); assay: as above; details: approx. 10 d, 0 = no effect, 100 = complete control
Description: as §1

[7] = test system: foxtail, giant (giant foxtail, Setaria faberii); assay: Test A postemergence application, visual injury rating; details: approx. 10 d, 0 = no effect, 100 = complete control
Description: as §1

[8] = test system: galium (catchweed bedstraw, Galium aparine); assay: as above; details: approx. 10 d, 0 = no effect, 100 = complete control
Description: as §1

[9] = test system: pigweed (Amaranthus retroflexus); assay: as above; details: approx. 10 d, 0 = no effect, 100 = complete control
Description: as §1

[10] = test system: ragweed (common ragweed, Ambrosia elation); assay: as above; details: approx. 10 d, 0 = no effect, 100 = complete control
Description: as §1

[11] = test system: blackgrass (Alopecurus myosuroides); assay: as above; details: approx. 10 d, 0 = no effect, 100 = complete control
Description: as §1

[12] = test system: wheat (Triticum aestivum); assay: as above; details: approx. 10 d, 0 = no effect, 100 = complete control
Description: as §1

corn (Zea mays) = assay: as above; details: approx. 10 d, 0 = no effect, 100 = complete control
Description: as §1

[13] = test system: ryegrass, Italian (Italian ryegrass, Lolium multiflorum); assay: as above; details: approx. 10 d, 0 = no effect, 100 = complete control
Description: as §1

kochia (Kochia scoparia) [14] = assay: as above; details: approx. 10 d, 0 = no effect, 100 = complete control
Description: as §1

[15] = test system: barnyardgrass (Echinochloa crus-galli); assay: as above; details: approx. 10 d, 0 = no effect, 100 = complete control
Description: as §1

rice (Oryza sativa) = assay: Test B flooded paddy test, visual plant response rating; details: 250 g ai/ha; applied to paddy water at 2-leaf stage; rated after 13 to 15 days; scale 0 to 100, 0 is no effect, 100 is complete control
Description: (§2) At time of treatment, test pots were flooded to 3 cm above the soil surface, treated by application of test compounds directly to the paddy water, and then maintained at that water depth for the duration of the test. Treated plants and controls were maintained in a greenhouse for 13 to 15 days, after which time all species were compared to controls and visually evaluated. Plant response ratings, summarized in Table B, are based on a scale of 0 to 100 where 0 is no effect and 100 is complete control. A dash (-) response means no test result.

[16] = test system: sedge, umbrella (small-flower umbrella sedge, Cyperus difformis); assay: as above; details: 250 g ai/ha; applied to paddy water at 2-leaf stage; rated after 13 to 15 days; scale 0 to 100, 0 is no effect, 100 is complete control
Description: as §2

[17] = test system: ducksalad (Heteranthera limosa); assay: as above; details: 250 g ai/ha; applied to paddy water at 2-leaf stage; rated after 13 to 15 days; scale 0 to 100, 0 is no effect, 100 is complete control
Description: as §2

[18] = test system: barnyardgrass (Echinochloa crus-galli); assay: as above; details: 250 g ai/ha; applied to paddy water at 2-leaf stage; rated after 13 to 15 days; scale 0 to 100, 0 is no effect, 100 is complete control
Description: as §2

Structure (SMILES) | Foxtail, Giant plant response rating (0 to 100 scale) ([1]; 125 g ai/ha) | Foxtail, Giant plant response rating (0 to 100 scale) ([1]; 500 g ai/ha) | Pigweed plant response rating (0 to 100 scale) ([2]; 125 g ai/ha) | Pigweed plant response rating (0 to 100 scale) ([2]; 500 g ai/ha) | Ragweed plant response rating (0 to 100 scale) ([3]; 125 g ai/ha) | Ragweed plant response rating (0 to 100 scale) ([3]; 500 g ai/ha) | Ryegrass, Italian plant response rating (0 to 100 scale) ([4]; 125 g ai/ha) | Ryegrass, Italian plant response rating (0 to 100 scale) ([4]; 500 g ai/ha) | Kochia plant response rating (0 to 100 scale) (kochia (Kochia scoparia) [5]; 125 g ai/ha) | Kochia plant response rating (0 to 100 scale) (kochia (Kochia scoparia) [5]; 500 g ai/ha) | Barnyardgrass plant response rating (0 to 100 scale) ([6]; 125 g ai/ha) | Barnyardgrass plant response rating (0 to 100 scale) ([6]; 500 g ai/ha) | Foxtail, Giant plant response rating (0 to 100 scale) ([7]; 125 g ai/ha) | Foxtail, Giant plant response rating (0 to 100 scale) ([7]; 500 g ai/ha) | Galium plant response rating (0 to 100 scale) ([8]; 125 g ai/ha) | Galium plant response rating (0 to 100 scale) ([8]; 500 g ai/ha) | Pigweed plant response rating (0 to 100 scale) ([9]; 125 g ai/ha) | Pigweed plant response rating (0 to 100 scale) ([9]; 500 g ai/ha) | Ragweed plant response rating (0 to 100 scale) ([10]; 125 g ai/ha) | Ragweed plant response rating (0 to 100 scale) ([10]; 500 g ai/ha) | other results
O=C(Nc1ccccc1F)C1C2=NCCCN2CC1c1cccc(C(F)(F)F)c1 (centres unmarked) [Compound 1] | 0 | 60 | 0 | 0 | 0 | 0 | 0 | 0 | 0 | 0 | 0 | 70 | 0 | 40 | 0 | 0 | 0 | 0 | 0 | 0 | Blackgrass plant response rating (0 to 100 scale) ([11]; 125 g ai/ha): 0; Blackgrass plant response rating (0 to 100 scale) ([11]; 500 g ai/ha): 0; Wheat plant response rating (0 to 100 scale) ([12]; 125 g ai/ha): 0; Wheat plant response rating (0 to 100 scale) ([12]; 500 g ai/ha): 0; Corn plant response rating (0 to 100 scale) (corn (Zea mays); 125 g ai/ha): 0; Corn plant response rating (0 to 100 scale) (corn (Zea mays); 500 g ai/ha): 20; Ryegrass, Italian plant response rating (0 to 100 scale) ([13]; 125 g ai/ha): 0; Ryegrass, Italian plant response rating (0 to 100 scale) ([13]; 500 g ai/ha): 0; Kochia plant response rating (0 to 100 scale) (kochia (Kochia scoparia) [14]; 125 g ai/ha): 0; Kochia plant response rating (0 to 100 scale) (kochia (Kochia scoparia) [14]; 500 g ai/ha): 0; Barnyardgrass plant response rating (0 to 100 scale) ([15]; 125 g ai/ha): 0; Barnyardgrass plant response rating (0 to 100 scale) ([15]; 500 g ai/ha): 60; Plant response rating, Flood, Rice (rice (Oryza sativa)): 0; Plant response rating, Flood, Sedge, Umbrella [16]: 50; Plant response rating, Flood, Ducksalad [17]: 70; Plant response rating, Flood, Barnyardgrass [18]: 0
O=C(Nc1ccccc1F)C1C2=NCC(=O)N2CC1c1cccc(C(F)(F)F)c1 (centres unmarked) [Compound 3, N-(2-fluorophenyl)-2,3,6,7-tetrahydro-3-oxo-6-[3-(trifluoromethyl)phenyl]-5H-pyrrolo[1,2-a]imidazole-7-carboxamide] | 0 | 80 | 0 | 0 | 0 | 0 | 0 | 0 | 0 | 0 | 0 | 60 | 20 | 50 | 0 | 0 | 0 | 0 | 0 | 0 | Blackgrass plant response rating (0 to 100 scale) ([11]; 125 g ai/ha): 0; Blackgrass plant response rating (0 to 100 scale) ([11]; 500 g ai/ha): 0; Wheat plant response rating (0 to 100 scale) ([12]; 125 g ai/ha): 0; Wheat plant response rating (0 to 100 scale) ([12]; 500 g ai/ha): 0; Corn plant response rating (0 to 100 scale) (corn (Zea mays); 125 g ai/ha): 0; Corn plant response rating (0 to 100 scale) (corn (Zea mays); 500 g ai/ha): 0; Ryegrass, Italian plant response rating (0 to 100 scale) ([13]; 125 g ai/ha): 0; Ryegrass, Italian plant response rating (0 to 100 scale) ([13]; 500 g ai/ha): 10; Kochia plant response rating (0 to 100 scale) (kochia (Kochia scoparia) [14]; 125 g ai/ha): 0; Kochia plant response rating (0 to 100 scale) (kochia (Kochia scoparia) [14]; 500 g ai/ha): 0; Barnyardgrass plant response rating (0 to 100 scale) ([15]; 125 g ai/ha): 0; Barnyardgrass plant response rating (0 to 100 scale) ([15]; 500 g ai/ha): 30

— patent US10442807B2, “Aryl substituted bicyclic compounds as herbicides” (FMC Corporation, priority 2015, dated 2019)
